Converted amounts (≈) assume the structure as drawn.
Experiments:
Type in all cases: functional
Aspergillus flavus = assay: Antifungal activity against Aspergillus flavus ATCC 204304 after 24 hrs by micro broth dilution assay; details: ATCC 204304, 24 h
Bacillus sp. = assay: Antibacterial activity against Bacillus proteus ATCC 13315 after 24 hrs by micro broth dilution assay; details: Bacillus sp. (in: firmicutes), ATCC 13315, 24 h
Saccharomyces cerevisiae = assay: Antifungal activity against Beer yeast ATCC 9763 after 24 hrs by micro broth dilution assay; details: ATCC 9763, 24 h
[1] = Antibacterial activity against Eberthella typhosa ATCC 14028 after 24 hrs by micro broth dilution assay; details: ATCC 14028, 24 h
Candida albicans = assay: Antifungal activity against Candida albicans ATCC 10231 after 24 hrs by micro broth dilution assay; details: ATCC 10231, 24 h
Staphylococcus aureus [2] = assay: Antibacterial activity against methicillin-resistant Staphylococcus aureus N315 after 24 hrs by micro broth dilution assay; details: N315, 24 h
Staphylococcus aureus [3] = assay: Antibacterial activity against Staphylococcus aureus ATCC 25923 after 24 hrs by micro broth dilution assay; details: ATCC 25923, 24 h
Pseudomonas aeruginosa = assay: Antibacterial activity against Pseudomonas aeruginosa ATCC 27853 a after 24 hrs by micro broth dilution assay; details: ATCC 27853, 24 h
Escherichia coli = assay: Antibacterial activity against Escherichia coli DH52 after 24 hrs by micro broth dilution assay; details: DH52, 24 h
Candida = assay: Antifungal activity against Candida mycoderma ATCC 9888 after 24 hrs by micro broth dilution assay; details: ATCC 9888, 24 h
Micrococcus luteus = assay: Antibacterial activity against Micrococcus luteus ATCC 4698 after 24 hrs by micro broth dilution assay; details: ATCC 4698, 24 h
Bacillus spizizenii = assay: Antibacterial activity against Bacillus subtilis ATCC 6633 after 24 hrs by micro broth dilution assay; details: ATCC 6633, 24 h
Cyberlindnera jadinii = assay: Antifungal activity against Candida utilis ATCC 9950 after 24 hrs by micro broth dilution assay; details: Williopsis jadinii, ATCC 9950, 24 h

| Structure (SMILES) | MIC (Aspergillus flavus) [µM] | MIC (Bacillus sp.) [µM] | MIC (Saccharomyces cerevisiae) [µM] | MIC [1] [µM] | MIC (Candida albicans) [µM] | MIC (Staphylococcus aureus [2]) [µM] | MIC (Staphylococcus aureus [3]) [µM] | MIC (Pseudomonas aeruginosa) [µM] | MIC (Escherichia coli) [µM] | MIC (Candida) [µM] | MIC (Micrococcus luteus) [µM] | MIC (Bacillus spizizenii) [µM] | MIC (Cyberlindnera jadinii) [µM] |
| --- | --- | --- | --- | --- | --- | --- | --- | --- | --- | --- | --- | --- | --- |
| O=c1c2ccc(F)cc2ncn1CCBr | 1890 (≈ 512 µg/mL) | 470 (≈ 127 µg/mL) | 940 (≈ 255 µg/mL) | > 1890 | 940 (≈ 255 µg/mL) | 940 (≈ 255 µg/mL) | > 1890 | > 1890 | 1890 (≈ 512 µg/mL) | > 1890 | 470 (≈ 127 µg/mL) | 1890 (≈ 512 µg/mL) | 940 (≈ 255 µg/mL) |
| O=c1c2ccc(F)cc2ncn1CCCCCCCCCCBr | 1340 (≈ 514 µg/mL) | 330 (≈ 126 µg/mL) | 670 (≈ 257 µg/mL) | > 1340 | 670 (≈ 257 µg/mL) | 330 (≈ 126 µg/mL) | > 1340 | > 1340 | 1340 (≈ 514 µg/mL) | > 1340 | 670 (≈ 257 µg/mL) | 1340 (≈ 514 µg/mL) | 330 (≈ 126 µg/mL) |
| O=c1c2ccc(F)cc2ncn1CCn1cnc([N+](=O)[O-])c1 | > 1690 | 420 (≈ 127 µg/mL) | 210 (≈ 63.7 µg/mL) | 420 (≈ 127 µg/mL) | 50 (≈ 15.2 µg/mL) | 210 (≈ 63.7 µg/mL) | 840 (≈ 255 µg/mL) | > 1690 | 840 (≈ 255 µg/mL) | 840 (≈ 255 µg/mL) | 50 (≈ 15.2 µg/mL) | 50 (≈ 15.2 µg/mL) | 420 (≈ 127 µg/mL) |
| O=c1c2ccc(F)cc2ncn1CCCCCBr | 820 (≈ 257 µg/mL) | 410 (≈ 128 µg/mL) | 820 (≈ 257 µg/mL) | > 1630 | 820 (≈ 257 µg/mL) | 820 (≈ 257 µg/mL) | > 1630 | > 1630 | 1630 (≈ 510 µg/mL) | > 1630 | 410 (≈ 128 µg/mL) | 1630 (≈ 510 µg/mL) | 410 (≈ 128 µg/mL) |
| O=c1c2ccc(Cl)cc2ncn1CCCCCBr | > 1550 | 390 (≈ 129 µg/mL) | 780 (≈ 257 µg/mL) | > 1550 | > 1550 | 780 (≈ 257 µg/mL) | > 1550 | > 1550 | 1550 (≈ 511 µg/mL) | > 1550 | 390 (≈ 129 µg/mL) | 1550 (≈ 511 µg/mL) | 390 (≈ 129 µg/mL) |
| O=c1c2ccc(Cl)cc2ncn1CCCCCn1cnc([N+](=O)[O-])c1 | 710 (≈ 257 µg/mL) | 350 (≈ 127 µg/mL) | 90 (≈ 32.6 µg/mL) | 350 (≈ 127 µg/mL) | 90 (≈ 32.6 µg/mL) | 180 (≈ 65.1 µg/mL) | 180 (≈ 65.1 µg/mL) | 350 (≈ 127 µg/mL) | 350 (≈ 127 µg/mL) | 180 (≈ 65.1 µg/mL) | 40 (≈ 14.5 µg/mL) | 40 (≈ 14.5 µg/mL) | 350 (≈ 127 µg/mL) |
| CCn1cc(C(=O)O)c(=O)c2cc(F)c(N3CCNCC3)cc21 [NORFLOXACIN] | > 1600 | 10 (≈ 3.19 µg/mL) | > 1600 | 10 (≈ 3.19 µg/mL) | > 1600 | 30 (≈ 9.58 µg/mL) | 10 (≈ 3.19 µg/mL) | 10 (≈ 3.19 µg/mL) | 50 (≈ 16 µg/mL) | > 1600 | 10 (≈ 3.19 µg/mL) | 10 (≈ 3.19 µg/mL) | > 1600 |
| Cc1ncc([N+](=O)[O-])n1CCCCCCCCCCn1cnc2cc(Cl)ccc2c1=O | 20 (≈ 8.92 µg/mL) | 20 (≈ 8.92 µg/mL) | 40 (≈ 17.8 µg/mL) | 20 (≈ 8.92 µg/mL) | 20 (≈ 8.92 µg/mL) | 40 (≈ 17.8 µg/mL) | 20 (≈ 8.92 µg/mL) | > 1150 | 20 (≈ 8.92 µg/mL) | 40 (≈ 17.8 µg/mL) | 20 (≈ 8.92 µg/mL) | 20 (≈ 8.92 µg/mL) | 20 (≈ 8.92 µg/mL) |
| O=c1c2ccc(Cl)cc2ncn1CCCCn1cnc([N+](=O)[O-])c1 | 740 (≈ 257 µg/mL) | 370 (≈ 129 µg/mL) | 90 (≈ 31.3 µg/mL) | 370 (≈ 129 µg/mL) | 90 (≈ 31.3 µg/mL) | 180 (≈ 62.6 µg/mL) | 370 (≈ 129 µg/mL) | 740 (≈ 257 µg/mL) | 740 (≈ 257 µg/mL) | 740 (≈ 257 µg/mL) | 50 (≈ 17.4 µg/mL) | 50 (≈ 17.4 µg/mL) | 370 (≈ 129 µg/mL) |

Source: ChEMBL document CHEMBL3621068, “Synthesis and biological evaluation of a new class of quinazolinoneazoles as potential antimicrobial agents and their interactions with calf thymus DNA and human serum albumin” (Medchemcomm, 2015)
